Reference: patent publication US9855268B2, “Triazolo[4,5-d]pyrimidine derivatives” (Merck Patent GmbH, priority 2013, dated 2018)

What was measured:
[1] = biological target: GSK3α(h) (Homo sapiens, UniProt P49840); assay: GSK3α radiometric kinase assay (33P-ATP, phospho GS2 peptide); type: biochemical; conditions: read-out: IC50 GSK3α (enzyme assay)
In short: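 Human GSK3α incubated with 20 μM phospho-GS2 peptide in 8 mM MOPS pH 7,0, 10 mM Mg-acetate and [γ-33P]ATP (concentration as required), started with MgATP. After 40 minutes at room temperature, stopped with phosphoric acid; 33P incorporation measured by filtermat spotting and scintillation counting.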

[2] = biological target: GSK3β(h) (Homo sapiens, UniProt P49841); assay: GSK3β radiometric kinase assay (33P-ATP, phospho GS2 peptide); type: biochemical; conditions: read-out: IC50 GSK3β (enzyme assay)
Method: GSK3β(h) is incubated with 8 mM MOPS pH 7,0, 0,2 mM EDTA, 20 μM
[…](p)EDEEE (phosphor GS2 peptide), 10 mM Mg-acetate and [gamma-33P-ATP](specific activity approx. 500 cpm/Pmol, concentration as required). The reaction is initiated by the addition of the MgATP. After incubation for 40 minutes at the room temperature, the Reaction is stopped by the addition of 3% phosphoric acid solution. 10 μL of reaction is then spotted onto a P30 filtermat and washed three times for 5 minutes in 50 mM phosphoric acid and once in methanol prior to drying and scintillation counting.

[3] = biological target: T1, GCN2 (Homo sapiens, UniProt Q9P2K8); assay: GCN2 enzyme assay (TR-FRET Lanthascreen, GFP-eIF2alpha phosphorylation); type: biochemical; conditions: 10 μM ATP, 80 nM GFP-eIF2a, 30 nM GCN2
In short: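 Kinase reaction with 10 μM ATP and 80 nM GFP-labelled eIF2alpha substrate at room temperature, stopped with EDTA. Phospho-eIF2alpha detected by TR-FRET between antibody and GFP-substrate, excitation at 340 nm.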
Target sequence in this assay (Q9P2K8 whole entry, species assumed): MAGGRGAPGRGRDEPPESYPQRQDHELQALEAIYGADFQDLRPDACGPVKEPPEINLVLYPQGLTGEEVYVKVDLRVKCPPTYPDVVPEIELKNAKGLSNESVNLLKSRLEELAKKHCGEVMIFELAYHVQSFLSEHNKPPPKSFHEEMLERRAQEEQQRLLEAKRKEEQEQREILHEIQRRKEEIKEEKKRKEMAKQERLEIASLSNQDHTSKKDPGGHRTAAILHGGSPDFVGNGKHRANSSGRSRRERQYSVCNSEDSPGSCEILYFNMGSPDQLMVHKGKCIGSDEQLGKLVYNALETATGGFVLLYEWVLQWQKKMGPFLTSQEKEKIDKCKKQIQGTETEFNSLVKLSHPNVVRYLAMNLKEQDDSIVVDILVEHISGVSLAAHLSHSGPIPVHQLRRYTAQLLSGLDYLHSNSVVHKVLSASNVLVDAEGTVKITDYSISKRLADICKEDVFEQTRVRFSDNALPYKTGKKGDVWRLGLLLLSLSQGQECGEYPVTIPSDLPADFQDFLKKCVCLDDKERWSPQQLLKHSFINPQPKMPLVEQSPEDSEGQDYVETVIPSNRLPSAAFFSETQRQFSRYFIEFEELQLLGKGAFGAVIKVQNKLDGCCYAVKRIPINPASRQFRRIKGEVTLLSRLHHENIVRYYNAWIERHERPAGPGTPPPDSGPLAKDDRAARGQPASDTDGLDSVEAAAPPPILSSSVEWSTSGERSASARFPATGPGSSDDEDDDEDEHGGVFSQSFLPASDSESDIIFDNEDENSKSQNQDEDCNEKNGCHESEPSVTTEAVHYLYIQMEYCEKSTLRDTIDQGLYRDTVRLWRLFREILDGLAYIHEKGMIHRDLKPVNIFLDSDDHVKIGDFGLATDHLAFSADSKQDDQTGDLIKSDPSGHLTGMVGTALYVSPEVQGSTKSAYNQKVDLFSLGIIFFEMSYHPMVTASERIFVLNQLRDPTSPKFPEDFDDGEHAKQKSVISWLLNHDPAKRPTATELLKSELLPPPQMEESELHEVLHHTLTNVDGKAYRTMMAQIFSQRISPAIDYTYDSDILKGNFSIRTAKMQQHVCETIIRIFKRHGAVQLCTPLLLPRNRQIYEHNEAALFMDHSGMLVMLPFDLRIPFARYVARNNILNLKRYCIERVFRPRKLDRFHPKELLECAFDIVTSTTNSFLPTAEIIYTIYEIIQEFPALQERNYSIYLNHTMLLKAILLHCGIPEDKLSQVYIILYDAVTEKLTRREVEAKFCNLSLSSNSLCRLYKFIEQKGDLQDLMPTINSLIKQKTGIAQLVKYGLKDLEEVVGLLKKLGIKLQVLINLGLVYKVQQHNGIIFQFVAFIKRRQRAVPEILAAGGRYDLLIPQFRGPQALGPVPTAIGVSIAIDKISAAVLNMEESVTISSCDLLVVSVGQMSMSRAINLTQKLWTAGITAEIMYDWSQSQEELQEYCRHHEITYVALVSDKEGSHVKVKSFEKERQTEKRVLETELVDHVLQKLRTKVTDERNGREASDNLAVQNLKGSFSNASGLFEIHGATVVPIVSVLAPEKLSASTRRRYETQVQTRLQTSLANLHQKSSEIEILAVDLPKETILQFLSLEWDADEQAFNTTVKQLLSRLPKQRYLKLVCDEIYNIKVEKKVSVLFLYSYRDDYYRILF

[4] = biological target: T1, GCN2; assay: Cellular assay of GCN2 activity (phospho-eIF2alpha immunocytochemistry after tryptophanol); type: cell-based; set-up: endogenous in cells; host or cells: U2OS; conditions: Human U2OS cells, 2 h compound, 600 μM tryptophanol 30 min
In short: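 Readout in human U2OS cells: compound pretreatment 2 h, then tryptophanol (600 μM final) for 30 min to trigger GCN2 signalling. Fixed, permeabilised cells quantified by immunocytochemistry for phosphorylation, normalised to DMSO controls as % effect; IC50 from concentration-response.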
Target sequence in this assay (Q9P2K8 whole entry): as the sequence (Q9P2K8 whole entry, species assumed) above

Sequence of GSK3β(h) (P49841 whole entry): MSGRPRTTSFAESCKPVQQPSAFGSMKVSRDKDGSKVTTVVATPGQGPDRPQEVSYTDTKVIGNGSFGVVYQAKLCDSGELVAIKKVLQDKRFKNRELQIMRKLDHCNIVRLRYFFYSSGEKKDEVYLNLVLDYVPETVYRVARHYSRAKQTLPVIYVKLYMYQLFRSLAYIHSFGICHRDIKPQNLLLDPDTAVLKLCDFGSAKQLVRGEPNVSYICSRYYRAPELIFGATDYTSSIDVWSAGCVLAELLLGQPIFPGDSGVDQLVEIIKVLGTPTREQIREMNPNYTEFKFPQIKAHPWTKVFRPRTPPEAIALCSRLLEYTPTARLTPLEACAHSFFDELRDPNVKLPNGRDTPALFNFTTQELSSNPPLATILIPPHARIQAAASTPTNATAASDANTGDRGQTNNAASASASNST
Sequence of GSK3α(h) (P49840 whole entry): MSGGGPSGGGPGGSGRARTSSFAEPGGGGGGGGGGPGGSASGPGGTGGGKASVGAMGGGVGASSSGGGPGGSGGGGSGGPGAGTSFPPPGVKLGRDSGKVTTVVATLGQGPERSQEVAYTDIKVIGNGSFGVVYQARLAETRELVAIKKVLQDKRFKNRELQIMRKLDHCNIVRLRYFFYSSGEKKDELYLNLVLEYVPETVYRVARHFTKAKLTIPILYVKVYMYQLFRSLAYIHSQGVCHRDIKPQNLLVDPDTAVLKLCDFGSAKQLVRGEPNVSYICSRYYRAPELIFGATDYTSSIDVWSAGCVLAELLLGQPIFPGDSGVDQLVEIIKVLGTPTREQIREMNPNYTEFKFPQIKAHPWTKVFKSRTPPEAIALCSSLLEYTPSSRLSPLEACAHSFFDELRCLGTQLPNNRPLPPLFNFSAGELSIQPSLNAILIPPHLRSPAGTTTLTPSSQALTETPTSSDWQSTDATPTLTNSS

IC50 [1] [µM] | IC50 [2] [µM] | IC50 [3] [µM] | IC50 [4] [µM] | SMILES
< 1 | < 1 | < 1 | 1 to 5 | CCOc1ccc(-n2nnc3cnc(N[C@@H]4CC[C@@H](C(=O)NCCOC)C4)nc32)cc1 [A248, (1R,3R)-3-[3-(4-ethoxy-phenyl)-3H-[1,2,3]triazolo[4,5-d]pyrimidin-5-ylamino]-cyclopentanecarboxylic acid (2-methoxy-ethyl)-amide]
< 1 | < 1 | < 1 | 1 to 5 | Cc1cc2cc(-n3nnc4cnc(N[C@@H]5CC[C@@H](C(N)=O)C5)nc43)ccc2o1 [A180, (1R,3R)-3-[3-(2-methyl-benzofuran-5-yl)-3H-[1,2,3]triazolo[4,5-d]pyrimidin-5-ylamino]-cyclopentanecarboxylic acid amide]
< 1 | < 1 | < 1 | 1 to 5 | COCCn1cc(-c2ccc(-n3nnc4cnc(N[C@@H]5CC[C@@H](C(N)=O)C5)nc43)cc2F)cn1 [A221, (1R,3R)-3-(3-{3-fluoro-4-[1-(2-methoxy-ethyl)-1H-pyrazol-4-yl]-phenyl}-3H-[1,2,3]triazolo[4,5-d]pyrimidin-5-ylamino)-cyclopentanecarboxylic acid amide]
< 1 | 1 to 5 | < 1 | 1 to 5 | Cc1ccc2cc(-n3nnc4cnc(N[C@@H]5CC[C@@H](N)C5)nc43)ccc2n1 [A124, (1R,3R)—N-[3-(2-methyl-quinolin-6-yl)-3H-[1,2,3]triazolo[4,5-d]pyrimidin-5-yl]-cyclopentane-1,3-diamine]
< 1 | < 1 | < 1 | 5 to 10 | COc1ccc(-n2nnc3cnc(N[C@@H]4C=C[C@@H](C(N)=O)C4)nc32)cc1 [A273, (1S,4S)-4-[3-(4-Methoxy-phenyl)-3H-[1,2,3]triazolo[4,5-d]pyrimidin-5-ylamino]-cyclopent-2-enecarboxylic acid amide]
< 1 | < 1 | < 1 | 1 to 5 | CCOc1ccc(-n2nnc3cnc(N[C@@H]4CC[C@@H](C(N)=O)C4)nc32)cc1 [A150, (1R,3R)-3-[3-(4-ethoxy-phenyl)-3H-[1,2,3]triazolo[4,5-d]pyrimidin-5-ylamino]-cyclopentanecarboxylic acid amide]
< 1 | < 1 | < 1 | 1 to 5 | OCCOc1ccc(-n2nnc3cnc(N[C@@H]4CC[C@@H](O)C4)nc32)cc1 [A203, (1R,3R)-3-{3-[4-(2-hydroxy-ethoxy)-phenyl]-3H-[1,2,3]triazolo[4,5-d]pyrimidin-5-ylamino}-cyclopentanol]
< 1 | < 1 | < 1 | 5 to 10 | NC(=O)[C@@H]1CC[C@@H](Nc2ncc3nnn(-c4ccc(OCCO)cc4)c3n2)C1 [A153, (1R,3R)-3-{3-[4-(2-hydroxy-ethoxy)-phenyl]-3H-[1,2,3]triazolo[4,5-d]pyrimidin-5-ylamino}-cyclopentanecarboxylic acid amide]
< 1 | < 1 | < 1 | 5 to 10 | CC(C)Oc1ccc(-n2nnc3cnc(N[C@@H]4CC[C@@H](C(N)=O)C4)nc32)cc1 [A164, (1R,3R)-3-[3-(4-isopropoxy-phenyl)-3H-[1,2,3]triazolo[4,5-d]pyrimidin-5-ylamino]-cyclopentanecarboxylic acid amide]
< 1 | 1 to 5 | < 1 | 1 to 5 | COCCn1cc(-c2ccc(-n3nnc4cnc(N[C@@H]5CC[C@H](N)C5)nc43)cc2)cn1 [A121, (1S,3R)—N3-(3-{4-[1-(2-methoxy-ethyl)-1H-pyrazol-4-yl]-phenyl}-3H-[1,2,3]triazolo[4,5-d]pyrimidin-5-yl)-cyclopentane-1,3-diamine]
< 1 | < 1 | < 1 | < 1 | CCOc1ccc(-n2nnc3cnc(N[C@@H]4CC[C@@H](C(=O)NCCO)C4)nc32)cc1 [A247, (1R,3R)-3-[3-(4-ethoxy-phenyl)-3H-[1,2,3]triazolo[4,5-d]pyrimidin-5-ylamino]-cyclopentanecarboxylic acid (2-hydroxy-ethyl)-amide]
< 1 | < 1 | < 1 | 5 to 10 | CCOc1ccc(-n2nnc3cnc(N[C@@H]4CC[C@@H](C(=O)NCCC(C)(C)O)C4)nc32)cc1 [A240, (1R,3R)-3-[3-(4-ethoxy-phenyl)-3H-[1,2,3]triazolo[4,5-d]pyrimidin-5-ylamino]-cyclopentanecarboxylic acid (3-hydroxy-3-methyl-butyl)-amide]
< 1 | < 1 | < 1 | 5 to 10 | Cc1ccc2cc(-n3nnc4cnc(N[C@@H]5CCC[C@@H](C(N)=O)C5)nc43)ccc2n1 (relative stereo) [A192, (trans)-3-[3-(2-methyl-quinolin-6-yl)-3H-[1,2,3]triazolo[4,5-d]pyrimidin-5-ylamino]-cyclohexanecarboxylic acid amide]
< 1 | < 1 | < 1 | < 1 | COc1ccc(-n2nnc3cnc(N[C@@H]4CC[C@@H](C(=O)NCCN5CCN(C)CC5)C4)nc32)cc1 [A244, (1R,3R)-3-[3-(4-methoxy-phenyl)-3H-[1,2,3]triazolo[4,5-d]pyrimidin-5-ylamino]-cyclopentanecarboxylic acid [2-(4-methyl-piperazin-1-yl)-ethyl]-amide]
< 1 | 1 to 5 | < 1 | 1 to 5 | COc1ccc(-n2nnc3cnc(N[C@@H]4CC[C@H](CN)C4)nc32)cc1 [A122, ((1R,3S)-3-aminomethyl-cyclopentyl)-[3-(4-methoxy-phenyl)-3H-[1,2,3]triazolo[4,5-d]pyrimidin-5-yl]-amine]
< 1 | < 1 | < 1 | 1 to 5 | NC(=O)[C@@H]1CC[C@@H](Nc2ncc3nnn(-c4ccc(OC[C@H](O)C(F)(F)F)cc4)c3n2)C1 [A151, (1R,3R)-3-{3-[4-((S)-3,3,3-trifluoro-2-hydroxy-propoxy)-phenyl]-3H-[1,2,3]triazolo[4,5-d]pyrimidin-5-ylamino}-cyclopentanecarboxylic acid amide]
< 1 | < 1 | < 1 | 1 to 5 | Cc1ccc2cc(-n3nnc4cnc(N[C@@H]5CC[C@@H](C(=O)NCCN6CCN(C)CC6)C5)nc43)ccc2n1 [A250, (1R,3R)-3-[3-(2-methyl-quinolin-6-yl)-3H-[1,2,3]triazolo[4,5-d]pyrimidin-5-ylamino]-cyclopentanecarboxylic acid [2-(4-methyl-piperazin-1-yl)-ethyl]-amide]
< 1 | < 1 | < 1 | 1 to 5 | CCOc1ccc(-n2nnc3cnc(N[C@@H]4CC[C@@H](C(N)=O)C4)nc32)cc1F [A157, (1R,3R)-3-[3-(4-ethoxy-3-fluoro-phenyl)-3H-[1,2,3]triazolo[4,5-d]pyrimidin-5-ylamino]-cyclopentanecarboxylic acid amide]
< 1 | < 1 | < 1 | 5 to 10 | CC(C)(O)Cn1cc(-c2ccc(-n3nnc4cnc(N[C@@H]5CC[C@@H](O)C5)nc43)cc2)cn1 [A232, (1R,3R)-3-(3-{4-[1-(2-hydroxy-2-methyl-propyl)-1H-pyrazol-4-yl]-phenyl}-3H-[1,2,3]triazolo[4,5-d]pyrimidin-5-ylamino)-cyclopentanol]
< 1 | < 1 | < 1 | 1 to 5 | NC(=O)[C@@H]1CC[C@@H](Nc2ncc3nnn(-c4ccc(OC[C@@H](O)C(F)(F)F)cc4)c3n2)C1 [A155, (1R,3R)-3-{3-[4-((R)-3,3,3-trifluoro-2-hydroxy-propoxy)-phenyl]-3H-[1,2,3]triazolo[4,5-d]pyrimidin-5-ylamino}-cyclopentanecarboxylic acid amide]
< 1 | < 1 | < 1 | 5 to 10 | CCOCCn1cc(-c2ccc(-n3nnc4cnc(N[C@@H]5CC[C@@H](C(N)=O)C5)nc43)cc2)cn1 [A211, (1R,3R)-3-(3-{4-[1-(2-ethoxy-ethyl)-1H-pyrazol-4-yl]-phenyl}-3H-[1,2,3]triazolo[4,5-d]pyrimidin-5-ylamino)-cyclopentanecarboxylic acid amide]
< 1 | 1 to 5 | < 1 | < 1 | CCOCCn1cc(-c2ccc(-n3nnc4cnc(N[C@@H]5CC[C@@H](N)C5)nc43)cc2)cn1 [A125, (1R,3R)—N-(3-{4-[1-(2-3thoxy-ethyl)-1H-pyrazol-4-yl]-phenyl}-3H-[1,2,3]triazolo[4,5-d]pyrimidin-5-yl)-cyclopentane-1,3-diamine]
